Experimental data from patent US20260184707A1, “PHARMACEUTICAL COMPOUNDS FOR THE TREATMENT OF COMPLEMENT MEDIATED DISORDERS” (ALEXION PHARMACEUTICALS, INC., priority 2022, published 2026).

Molecular target: T1, Human complement C1s enzyme (Homo sapiens, UniProt P09871)
T1 construct: purified from human serum, Complement Technology, Inc; purchased Complement Technology, Inc; host or cells: human serum (plasma-derived native protein)
T1 sequence (P09871 438-688 limits assumed): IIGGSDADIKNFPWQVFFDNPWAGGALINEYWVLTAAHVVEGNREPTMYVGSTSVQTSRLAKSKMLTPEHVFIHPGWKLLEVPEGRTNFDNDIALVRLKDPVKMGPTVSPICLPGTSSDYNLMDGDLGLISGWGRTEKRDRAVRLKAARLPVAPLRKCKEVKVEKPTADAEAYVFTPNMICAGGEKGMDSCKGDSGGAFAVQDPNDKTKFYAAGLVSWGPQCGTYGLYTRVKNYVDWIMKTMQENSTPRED
T1 sequence (P09871 16-437 partner limits assumed): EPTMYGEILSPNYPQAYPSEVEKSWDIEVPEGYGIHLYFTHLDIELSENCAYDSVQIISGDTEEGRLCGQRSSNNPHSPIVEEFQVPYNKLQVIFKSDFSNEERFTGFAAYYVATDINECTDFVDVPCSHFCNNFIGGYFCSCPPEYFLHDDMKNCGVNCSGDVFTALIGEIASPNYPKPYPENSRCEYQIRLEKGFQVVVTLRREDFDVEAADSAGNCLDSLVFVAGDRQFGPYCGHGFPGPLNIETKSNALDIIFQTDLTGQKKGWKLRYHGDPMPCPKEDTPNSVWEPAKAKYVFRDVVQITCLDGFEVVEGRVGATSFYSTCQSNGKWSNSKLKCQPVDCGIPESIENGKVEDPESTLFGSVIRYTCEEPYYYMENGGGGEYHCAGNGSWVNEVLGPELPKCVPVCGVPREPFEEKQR
Experiment: Human C1s enzyme assay
Format: biochemical
Conditions: human complement C1s enzyme 1.16 nM, substrate Z-L-Lys-SBzl, A405; read-out: IC50 (Stars)
How it was run: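 Thioesterase activity followed colorimetrically (DTNB, A405, 30-s reads) using 100 μM Z-L-Lys-SBzl substrate. Enzyme, human serum-derived C1s at 1.16 nM final, was incubated with test compound for 5 min, room temperature, pH 7.5 Tris buffer with 1 M NaCl. Rate-versus-concentration data fitted by nonlinear regression for IC50.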

| Compound | IC50 |
| --- | --- |
| C[C@@H](Nc1cnc(-c2cccs2)n(CC(=O)NCc2cc3cnccc3[nH]2)c1=O)c1ccc2oc3ccccc3c2c1 [Compound 327, (R)-N-((1H-pyrrolo[3,2-c]pyridin-2-yl)methyl)-2-(5-((1-(dibenzo[b,d]furan-2-yl)ethyl)-amino)-6-oxo-2-(thiophen-2-yl)pyrimidin-1(6H)-yl)acet-amide] | < 100 nM |
| C[C@@H](Nc1cnc(-c2cnn(C)c2)n(CC(=O)NCc2cc3cnccc3[nH]2)c1=O)c1ccc2oc3ccccc3c2c1 [Compound 328, (R)-N-((1H-pyrrolo[3,2-c]pyridin-2-yl)methyl)-2-(5-((1-(dibenzo[b,d]furan-2-yl)ethyl)-amino)-2-(1-methyl-1H-pyr-azol-4-yl)-6-oxopyrimidin-1(6H)-yl)acetamide] | < 100 nM |
| C[C@@H](Nc1nccn(CC(=O)NCc2cc3cnccc3[nH]2)c1=O)c1ccc2oc3ccccc3c2c1 [Compound 329, (R)-N-((1H-pyrrolo[3,2-c]pyridin-2-yl)methyl)-2-(3-((1-(dibenzo[b,d]furan-2-yl)ethyl)-amino)-2-oxopyrazin-1(2H)-yl)acetamide] | 100 to 1000 nM |
| O=C(Cn1c(C2CC2)ncc(NCc2ccc3oc4ccccc4c3c2)c1=O)NCc1cc2cnccc2[nH]1 [Compound 330, N-((1H-pyrrolo[3,2-c]pyridin-2-yl)methyl)-2-(2-cyclopropyl-5-((dibenzo[b,d]furan-2-yl-methyl)amino)-6-oxopyrimi-din-1(6H)-yl)acetamide] | < 100 nM |
| CC(C)[C@@H](Nc1cnc(-c2ccccc2F)n(CC(=O)NCc2cc3cnccc3[nH]2)c1=O)c1ccc2oc3ccccc3c2c1 [Compound 332, (R)—N-((1H-pyrrolo[3,2-c]pyridine-2-yl)methyl)-2-(5-((1-(dibenzo[b,d]furan-2-yl)-2-methylpropyl)amino)-2-(2-fluorophenyl)-6-oxopyrimidin-1(6H)-yl)acetamide] | > 1000 nM |
| Cc1cn(CC(=O)NCc2cc3cnccc3[nH]2)c(=O)c(N[C@H](C)c2ccc3oc4ccccc4c3c2)n1 [Compound 333, (R)—N-((1H-pyrrolo[3,2-c]pyridine-2-yl)methyl)-2-(3-((1-(dibenzo[b,d]furan-2-yl)ethyl)amino)-5-methyl-2-oxopyrazin-1(2H)-yl)acetamide] | < 100 nM |
| C[C@@H](Nc1cnc(-c2ccncc2)n(CC(=O)NCc2cc3cnccc3[nH]2)c1=O)c1ccc2oc3ccccc3c2c1 [Compound 334, (R)-N-((1H-pyrrolo[3,2-c]pyridin-2-yl)methyl)-2-(5-((1-(dibenzo[b,d]furan-2-yl)ethyl)-amino)-6-oxo-2-(pyridin-4-yl)-pyrimidin-1(6H)-yl)acetamide] | < 100 nM |
| C[C@@H](Nc1cnc(-c2cccnc2)n(CC(=O)NCc2cc3cnccc3[nH]2)c1=O)c1ccc2oc3ccccc3c2c1 [Compound 335, (R)-N-((1H-pyrrolo[3,2-c]pyridin-2-yl)methyl)-2-(5-((1-(dibenzo[b,d]furan-2-yl)ethyl)-amino)-6-oxo-2-(pyridin-3-yl)-pyrimidin-1(6H)-yl)acetamide] | < 100 nM |
| Cc1nc(-c2ccccc2)n(CC(=O)NCc2cc3cnccc3[nH]2)c(=O)c1N[C@H](C)c1ccc2oc3ccccc3c2c1 [Compound 336, (R)—N-((1H-pyrrolo[3,2-c]pyridin-2-yl)methyl)-2-(5-((1-(dibenzo[b,d]furan-2-yl)ethyl)amino)-4-methyl-6-oxo-2-phenylpyrimidin-1(6H)-yl)acetamide] | < 100 nM |
| Cc1nc(-c2ccccc2)n(CC(=O)NCc2cc3cnccc3[nH]2)c(=O)c1NCc1ccc2oc3ccccc3c2c1 [Compound 337, N-((1H-pyrrolo[3,2-c]pyridin-2-yl)methyl)-2-(5-((dibenzo [b,d]furan-2-ylmethyl)amino)-4-methyl-6-oxo-2-phenylpyr-imidin-1(6H)-yl)acetamide] | < 100 nM |
| C[C@@H](Nc1c[nH]c(=O)n(CC(=O)NCc2cc3cnccc3[nH]2)c1=O)c1ccc2oc3ccccc3c2c1 [Compound 338, (R)-N-((1H-pyrrolo[3,2-c]pyridin-2-yl)methyl)-2-(5-((1-(dibenzo[b,d]furan-2-yl)ethyl)-amino)-2,6-dioxo-3,6-dihydro-pyrimidin-1(2H)-yl)acetamide] | 100 to 1000 nM |
| C[C@@H](Nc1cnc(-c2cscn2)n(CC(=O)NCc2cc3cnccc3[nH]2)c1=O)c1ccc2oc3ccccc3c2c1 [Compound 339, (R)-N-((1H-pyrrolo[3,2-c]pyridin-2-yl)methyl)-2-(5-((1-(dibenzo[b,d]furan-2-yl)ethyl)-amino)-6-oxo-2-(thiazol-4-yl)-pyrimidin-1(6H)-yl)acetamide] | < 100 nM |
| C[C@@H](Nc1cnc(-c2nccs2)n(CC(=O)NCc2cc3cnccc3[nH]2)c1=O)c1ccc2oc3ccccc3c2c1 [Compound 340, (R)-N-((1H-pyrrolo[3,2-c]pyridin-2-yl)methyl)-2-(5-((1-(dibenzo[b,d]furan-2-yl)ethyl)-amino)-6-oxo-2-(thiazol-2-yl)-pyrimidin-1(6H)-yl)acetamide] | 100 to 1000 nM |
| CC(C)c1ncc(N[C@H](C)c2ccc3oc4ccccc4c3c2)c(=O)n1CC(=O)NCc1cc2cnccc2[nH]1 [Compound 341, (R)—N-((1H-pyrrolo[3,2-c]pyridine-2-yl)methyl)-2-(5-((1-(dibenzo[b,d]furan-2-yl)ethyl)amino)-2-isopropyl-6-oxopyrimidin-1(6H)-yl)acetamide] | 100 to 1000 nM |
| C[C@@H](Nc1cnc(C2CC2)n(CC(=O)NCc2cc3cnccc3[nH]2)c1=O)c1ccc2oc3ccccc3c2c1 [Compound 342, (R)-N-((1H-pyrrolo[3,2-c]pyridin-2-yl)methyl)-2-(2-cyclopropyl-5-((1-(dibenzo [b,d]furan-2-yl)ethyl)amino)-6-oxo-pyrimidin-1(6H)-yl)-acetamide] | 100 to 1000 nM |
| C[C@@H](Nc1cnc(OC2CC2)n(CC(=O)NCc2cc3cnccc3[nH]2)c1=O)c1ccc2oc3ccccc3c2c1 [Compound 343, (R)—N-((1H-pyrrolo[3,2-c]pyridine-2-yl)methyl)-2-(2-cyclopropoxy-5-((1-(dibenzo[b,d]furan-2-yl)ethyl)amino)-6-oxopyrimidin-1(6H)-yl)acetamide] | 100 to 1000 nM |
| C[C@@H](Nc1cnc(N2CCOCC2)n(CC(=O)NCc2cc3cnccc3[nH]2)c1=O)c1ccc2oc3ccccc3c2c1 [Compound 344, (R)-N-((1H-pyrrolo[3,2-c]pyridin-2-yl)methyl)-2-(5-((1-(dibenzo[b,d]furan-2-yl)ethyl)-amino)-2-morpholino-6-oxo-pyrimidin-1(6H)-yl)acetamide] | < 100 nM |
| C[C@@H](Nc1cnc(-c2ccc(S(F)(F)(F)(F)F)cc2)n(CC(=O)NCc2cc3cnccc3[nH]2)c1=O)c1ccc2oc3ccccc3c2c1 [Compound 345, (R)-N-((1H-pyrrolo[3,2-c]pyridin-2-yl)methyl)-2-(5-((1-(dibenzo[b,d]furan-2-yl)ethyl)-amino)-6-oxo-2-(4-(penta-fluoro-lambda6-sulfaneyl)-phenyl)pyrimidin-1(6H)-yl)-acetamide] | < 100 nM |
| C[C@@H](Nc1cncn(CC(=O)NCc2cc3cnccc3[nH]2)c1=O)c1ccc2c(c1)-c1ccccc1C2(F)F [Compound 346, (R)-N-((1H-pyrrolo[3,2-c]pyridin-2-yl)methyl)-2-(5-((1-(9,9-difluoro-9H-fluoren-3-yl)-ethyl)amino)-6-oxopyrimidin-1(6H)-yl)acetamide] | 100 to 1000 nM |
